Results on three molecules are retold here after patent US10870647B2, “Imidazopyridine derivative, method for preparing same, and pharmaceutical composition containing same as active ingredient for preventing or treating cancer” (DAEGU-GYEONGBUK MEDICAL INNOVATION FOUNDATION, priority 2016, dated 2020).

Holding throughout (assay): Kinase selectivity, scanMAX Kinase assay panel (DiscoverX), % control at 1 uM
Assay type in all cases: binding

The target in experiment [1] is T1, scanMAX Kinase assay panel (Homo sapiens, UniProt P21709).
T1 construct: purchased DiscoverX
T1 sequence (P21709 26-976): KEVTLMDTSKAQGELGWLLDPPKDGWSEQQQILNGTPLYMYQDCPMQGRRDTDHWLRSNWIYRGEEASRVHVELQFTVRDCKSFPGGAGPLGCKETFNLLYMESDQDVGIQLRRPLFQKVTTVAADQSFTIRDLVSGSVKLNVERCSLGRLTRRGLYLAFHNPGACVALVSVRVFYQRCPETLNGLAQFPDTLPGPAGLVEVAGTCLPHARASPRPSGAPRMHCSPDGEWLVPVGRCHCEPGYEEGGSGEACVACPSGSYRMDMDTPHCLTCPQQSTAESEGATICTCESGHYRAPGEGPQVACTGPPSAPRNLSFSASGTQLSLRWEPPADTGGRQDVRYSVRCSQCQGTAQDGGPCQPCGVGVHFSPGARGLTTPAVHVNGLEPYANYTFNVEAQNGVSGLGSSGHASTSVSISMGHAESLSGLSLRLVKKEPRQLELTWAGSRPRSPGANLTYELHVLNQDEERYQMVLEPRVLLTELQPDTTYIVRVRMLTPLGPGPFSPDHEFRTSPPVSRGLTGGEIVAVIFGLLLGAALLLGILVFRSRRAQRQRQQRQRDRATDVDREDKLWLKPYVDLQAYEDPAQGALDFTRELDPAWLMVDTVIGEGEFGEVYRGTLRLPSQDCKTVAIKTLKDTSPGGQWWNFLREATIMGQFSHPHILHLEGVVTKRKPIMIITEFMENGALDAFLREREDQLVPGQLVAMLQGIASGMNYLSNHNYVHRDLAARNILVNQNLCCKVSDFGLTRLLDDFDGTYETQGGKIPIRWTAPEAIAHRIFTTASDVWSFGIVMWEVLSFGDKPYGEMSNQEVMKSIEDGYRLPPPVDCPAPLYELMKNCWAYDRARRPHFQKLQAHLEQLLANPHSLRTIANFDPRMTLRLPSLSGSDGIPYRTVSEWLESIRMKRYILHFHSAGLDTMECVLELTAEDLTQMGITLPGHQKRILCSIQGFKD
The conditions noted are these: EPHA1; 1 uM; read-out: Percent Control (%). In a few lines:
(§1)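 Read-out is percent of control, derived from the signal with compound relative to positive and negative controls: (compound − positive)/(negative − positive) × 100. Each enzyme received test drug at 1 uM in DMSO, and values under 35% count as active.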

Experiment [2] concerns the target T2, scanMAX Kinase assay panel (Homo sapiens, UniProt P49674).
T2 construct: purchased DiscoverX
The conditions noted are these: CSNK1E; 1 uM; read-out: Percent Control (%). In a few lines: as §1

Experiment [3] addresses T3, scanMAX Kinase assay panel (Homo sapiens, UniProt Q06187).
T3 construct: purchased DiscoverX
The conditions noted are these: BTK; 1 uM; read-out: Percent Control (%). In outline:
as §1

Experiment [4] addresses T4, scanMAX Kinase assay panel (Homo sapiens, UniProt Q14164).
T4 construct: purchased DiscoverX
T4 sequence (Q14164 1-716): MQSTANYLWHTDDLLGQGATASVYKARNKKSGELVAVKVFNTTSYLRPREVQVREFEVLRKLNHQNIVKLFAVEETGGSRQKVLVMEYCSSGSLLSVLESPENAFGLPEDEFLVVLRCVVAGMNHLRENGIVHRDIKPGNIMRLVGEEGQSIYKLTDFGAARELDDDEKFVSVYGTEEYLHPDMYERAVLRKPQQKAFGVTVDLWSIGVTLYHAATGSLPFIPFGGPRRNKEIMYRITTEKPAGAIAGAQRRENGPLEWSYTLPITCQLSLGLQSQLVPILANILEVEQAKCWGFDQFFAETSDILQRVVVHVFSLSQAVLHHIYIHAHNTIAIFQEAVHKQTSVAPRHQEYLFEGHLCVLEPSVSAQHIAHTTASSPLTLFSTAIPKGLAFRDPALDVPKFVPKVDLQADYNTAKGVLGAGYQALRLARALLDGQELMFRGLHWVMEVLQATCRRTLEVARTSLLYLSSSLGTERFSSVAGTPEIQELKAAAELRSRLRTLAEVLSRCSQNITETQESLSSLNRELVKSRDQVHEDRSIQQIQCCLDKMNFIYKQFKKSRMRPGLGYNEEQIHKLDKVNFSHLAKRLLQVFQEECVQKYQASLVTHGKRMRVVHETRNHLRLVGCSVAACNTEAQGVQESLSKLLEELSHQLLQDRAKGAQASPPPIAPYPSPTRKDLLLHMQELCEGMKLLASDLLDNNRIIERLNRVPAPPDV
The conditions noted are these: IKK-epsilon; 1 uM; read-out: Percent Control (%). In a few lines:
as §1

In experiment [5] the target is T5, scanMAX Kinase assay panel (Homo sapiens, UniProt Q9P1W9).
T5 construct: purchased DiscoverX
The conditions noted are these: PIM2; 1 uM; read-out: Percent Control (%). In outline: as §1

The target of experiment [6] is T6, scanMAX Kinase assay panel (Homo sapiens, UniProt Q9UQB9).
T6 construct: purchased DiscoverX
T6 sequence (Q9UQB9 1-309): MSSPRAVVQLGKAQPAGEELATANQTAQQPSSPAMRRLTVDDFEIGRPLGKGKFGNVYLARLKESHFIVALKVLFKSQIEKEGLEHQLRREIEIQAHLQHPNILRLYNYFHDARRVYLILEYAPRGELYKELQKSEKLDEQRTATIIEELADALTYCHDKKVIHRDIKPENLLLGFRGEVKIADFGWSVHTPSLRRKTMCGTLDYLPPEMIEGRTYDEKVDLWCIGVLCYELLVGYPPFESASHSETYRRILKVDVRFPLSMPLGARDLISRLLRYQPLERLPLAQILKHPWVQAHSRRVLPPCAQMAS
The conditions noted are these: AURKC; 1 uM; read-out: Percent Control (%). In outline: as §1

T3 sequence (Q06187 whole entry): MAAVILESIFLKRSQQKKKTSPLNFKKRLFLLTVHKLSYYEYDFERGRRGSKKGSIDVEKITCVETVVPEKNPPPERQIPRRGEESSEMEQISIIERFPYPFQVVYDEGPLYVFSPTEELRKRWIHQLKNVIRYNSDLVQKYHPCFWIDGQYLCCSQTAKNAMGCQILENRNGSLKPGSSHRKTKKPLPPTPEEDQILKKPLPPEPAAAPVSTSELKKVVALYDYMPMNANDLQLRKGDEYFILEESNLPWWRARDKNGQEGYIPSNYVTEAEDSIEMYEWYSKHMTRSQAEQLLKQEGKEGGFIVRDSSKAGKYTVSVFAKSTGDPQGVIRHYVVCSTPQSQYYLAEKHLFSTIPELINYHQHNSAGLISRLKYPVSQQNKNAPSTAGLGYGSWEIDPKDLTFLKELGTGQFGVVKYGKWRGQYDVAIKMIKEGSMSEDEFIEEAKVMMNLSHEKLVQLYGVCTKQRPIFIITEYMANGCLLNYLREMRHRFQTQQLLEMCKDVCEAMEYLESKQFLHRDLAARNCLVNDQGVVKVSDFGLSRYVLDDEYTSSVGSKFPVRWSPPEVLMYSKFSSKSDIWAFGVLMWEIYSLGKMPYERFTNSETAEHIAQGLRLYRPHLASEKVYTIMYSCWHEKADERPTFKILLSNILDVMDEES
T2 sequence (P49674 whole entry): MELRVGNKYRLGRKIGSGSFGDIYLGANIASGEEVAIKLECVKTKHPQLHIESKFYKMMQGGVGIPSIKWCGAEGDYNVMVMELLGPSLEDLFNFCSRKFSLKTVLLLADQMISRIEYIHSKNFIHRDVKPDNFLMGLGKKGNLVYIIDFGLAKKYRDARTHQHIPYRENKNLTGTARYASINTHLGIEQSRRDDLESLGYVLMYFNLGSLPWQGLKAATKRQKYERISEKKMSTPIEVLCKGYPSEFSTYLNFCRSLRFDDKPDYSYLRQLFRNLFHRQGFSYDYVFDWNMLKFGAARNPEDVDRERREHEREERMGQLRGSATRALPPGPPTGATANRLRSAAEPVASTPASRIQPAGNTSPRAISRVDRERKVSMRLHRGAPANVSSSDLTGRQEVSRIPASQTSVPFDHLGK
T5 sequence (Q9P1W9 whole entry): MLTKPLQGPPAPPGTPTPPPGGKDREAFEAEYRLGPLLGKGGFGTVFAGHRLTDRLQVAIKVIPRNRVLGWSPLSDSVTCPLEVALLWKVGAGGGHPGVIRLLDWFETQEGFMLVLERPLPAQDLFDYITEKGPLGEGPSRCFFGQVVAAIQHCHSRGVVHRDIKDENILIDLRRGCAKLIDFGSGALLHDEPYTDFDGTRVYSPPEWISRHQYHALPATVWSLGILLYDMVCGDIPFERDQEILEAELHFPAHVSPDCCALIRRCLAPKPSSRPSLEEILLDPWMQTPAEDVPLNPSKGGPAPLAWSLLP

As to `Cc1ccc(C(=O)Nc2ccc(CN3CCN(C)CC3)c(C(F)(F)F)c2)cc1C#Cc1cnc2c(Nc3cnn(C)c3)cccn12` [Example 1, 4-methyl-3-((8-((1-methyl-1H-pyrazol-4-yl)amino)imidazo[1,2-a]pyridin-3-yl)ethynyl)-N-(4-((4-methylpiperazin-1-yl)methyl)-3-(trifluoromethyl)phenyl)benzamide], the remaining binding at 1 µM came to 2% in experiment [1]; 90% in experiment [2]; 1% in experiment [3]; 66% in experiment [4]; 100% in experiment [5]; 1% in experiment [6].
On to `Cc1cn(-c2cc(NC(=O)c3ccc(C)c(C#Cc4cnc5c(Nc6cnn(C)c6)cccn45)c3)cc(C(F)(F)F)c2)cn1` [Example 12, 4-methyl-N-(3-(4-methyl-1H-imidazol-1-yl)-5-(trifluoromethyl)phenyl)-3-((8-((1-methyl-1H-pyrazol-4-yl)amino)imidazo[1,2-a]pyridin-3-yl)ethynyl)benzamide], for which the remaining binding at 1 µM in experiment [1] amounted to 8%; in experiment [2] it was 99%; in experiment [3], 37%; in experiment [4], 100%; in experiment [5], 91%; in experiment [6] it was 48%.
Take `Cc1ccc(NC(=O)C2(C(=O)Nc3ccc(F)cc3)CC2)cc1C#Cc1cnc2c(Nc3cnn(C(C)C)c3)cccn12` [Example 78]: the remaining binding at 1 µM in experiment [1] worked out at 69%; in experiment [2], 94%; in experiment [3], 100%; in experiment [4], 100%; in experiment [5], 100%; in experiment [6], 88%.
